# Laboratory results as given in paper PMC4654502, “Early Gelatinase Activity Is Not a Determinant of Long-Term Recovery after Traumatic Brain Injury in the Immature Mouse” (PLoS ONE, 2015).
# Values joined by “and” are separate entries in the source; they are usually repeats but may differ in a detail not shown here. Equal values may be shown once.
# Experiments:
# [1] = system: controlled cortical impact TBI at p21; experiment: Morris water maze at adulthood after TBI at p21; format: in vivo, male C57Bl/6J mice; conditions: 25 mg/kg s.c. at 2, 4, 24, 48 h post-injury
# Protocol: (§1) The controlled cortical impact model of TBI was used as previously described. TBI to the p21 mouse approximates a toddler-aged child, based upon the structural, biochemical and behavioral characteristics of this age. Pups were anaesthetized with 1.25% 2,2,2-tribromoethanol (Avertin; Sigma-Aldrich, St. Louis, MO) in isotonic saline (i.p. bolus at 0.02 mL/g body weight). After craniotomy, mice were subjected to a controlled cortical impact at 4.5 m/s velocity and 1.73 mm depth of penetration, for a sustained depression of 150 ms, using a 3.0 mm convex impactor tip. Mice were maintained on a water-circulating heating pad throughout surgery and recovery. Following impact, the scalp was closed with sutures and each animal administered 0.5 ml of isotonic saline subcutaneously (s.c.) to prevent post-operative dehydration. Sham-operated mice underwent identical surgical procedures, including craniotomy, without receiving the cortical impact. All mice were closely monitored for 1–2 hours post-surgery until return of the righting reflex and full mobilization. Mice were then returned to group-housing, and weighed post-surgery at days 1, 3, and weekly thereafter till the end of the study.
# The treatment regime was based upon several considerations. […] Thirdly, we limited treatment to a period of 48 h post-injury in order to minimize potential off-target effects on ongoing brain development processes at this time, given the known roles that these gelatinases play in postnatal synaptic maturation. For acute studies (gelatin zymography and histology) animals were euthanized at 4 hours and for in situ zymography, they were euthanized 1 hour after the last injection. For long-term studies (behavioral and cognitive assessments and histology) animals were euthanized at ~2 months post-injury. Euthanasia was by overdose with 2.5% Avertin i.p. followed by decapitation or cardiac transperfusion as described below.
# Mice were randomized for behavior testing and all behavior testing was performed by individuals blinded to injury and treatment. Behavioral and cognitive testing of brain injured mice and sham controls commenced at 2 months post-injury (~ 3 months of age; n = 15/group). An extensive battery of behavioral assessments was performed in the following order: open field, rotarod, elevated plus maze, three-chamber social task, resident-intruder, and Morris water maze (MWM). […]
# The MWM was used to assess spatial learning and memory as previously described, using a 140 cm-diameter circular pool filled with opaque water (22°C). […] Movements were tracked with an overhead mounted video camera interfaced with Noldus EthoVision software (Noldus IT, Tacoma, WA), for quantification of the cumulative distance to and latency to locate the platform, as well as swim velocity (cm/s). […]
# MMP-9 = experiment: Inhibition constant for MMP-9; format: biochemical; conditions: more potent than the parent compound
# [2] = system: controlled cortical impact TBI at p21; experiment: Three-chamber social approach task at adulthood after TBI at p21; format: in vivo, male C57Bl/6J mice; conditions: 25 mg/kg s.c. at 2, 4, 24, 48 h post-injury
# Protocol: as §1, with “study. […]” for “study.”
# The three-chamber paradigm allows for the evaluation of social affiliation and social recognition in mice. […] Data were expressed as time spent in each chamber (% of total time).
# [3] = Pharmacokinetics and brain distribution after multiple-dose s.c. administration; format: in vivo, p21 naïve male C57Bl/6J mice
# Protocol: Dosing route and concentration were similar to what we proposed to do for treatment for the current study. Terminal blood samples were collected in heparinized tubes through the posterior vena cava and centrifuged to obtain plasma (n = 3 per time point). Whole brain samples were harvested after transcardial perfusion with saline, immediately flash frozen in liquid nitrogen, and stored at -80°C until analysis.
# TBI in adult mice = conditions: equivalent dose; cited from earlier work
# [4] = system: controlled cortical impact TBI at p21; experiment: Resident-intruder test at adulthood after TBI at p21; format: in vivo, male C57Bl/6J mice; conditions: 25 mg/kg s.c. at 2, 4, 24, 48 h post-injury; tested at adulthood
# Protocol: as §1, with “Mice were then returned to group-housing, and weighed post-surgery at days 1, 3, and weekly thereafter till the end of the study.” left out
# To assess social investigative behaviors, a novel stimulus mouse (matched for strain, age and sex) was presented into the established home cage of the test mouse, and investigative behaviors were quantified from video recordings as previously described.
# MMP-9 or MMP-2 = conditions: compared with SB-3CT; cited from earlier work
# [5] = Body weight after surgery at p21; format: in vivo, male C57Bl/6J mice; conditions: 25 mg/kg s.c. at 2, 4, 24, 48 h post-injury or sham-operation
# Protocol: as §1
# [6] = system: controlled cortical impact TBI at p21; experiment: Elevated plus maze at adulthood after TBI at p21; format: in vivo, male C57Bl/6J mice; conditions: 25 mg/kg s.c. at 2, 4, 24, 48 h post-injury; tested ~2 months post-injury
# Protocol: as §1, with “Mice were then returned to group-housing, and weighed post-surgery at days 1, 3, and weekly thereafter till the end of the study.” left out
# The elevated plus maze (Kinder Scientific, Poway, CA) assesses anxiety based upon the natural tendency of rodents to avoid the open arms in preference for enclosed areas. […] Times spent in the open versus closed arms was assessed as previously described.
# [7] = 25 mg/kg s.c. at 0, 2 and 24 h, p21 mice
# [8] = 0.5 h after final dose, 25 mg/kg s.c. at 0, 2 and 24 h, p21 mice
# [9] = 1 h after final dose, 25 mg/kg s.c. at 0, 2 and 24 h, p21 mice
# [10] = 2 h after final dose, 25 mg/kg s.c. at 0, 2 and 24 h, p21 mice
smiles,measurement,setting,value
O=S(=O)(CC1CS1)c1ccc(Oc2ccc(O)cc2)cc1 (stereo not drawn) [p-OH SB-3CT],"MWM probe trials, effect of injury on spatial memory retention",[1]; four probe trials,not rescued by acute inhibition of gelatinases with p-OH SB-3CT
same,"MWM cumulative distance to the target, visible and hidden sessions",[1]; tested at adulthood,no effect of p-OH SB-3CT treatment
same,"MWM latency to reach the platform, visible and hidden platform sessions",[1]; tested at adulthood,did not modify this injury-related behavior
same,MWM swim velocity during visible platform trials,[1]; tested at adulthood,not influenced
same,potency at inhibiting MMP-9 relative to parent compound SB-3CT,MMP-9,2.5 fold
same,"three-chamber task stage 2, preference for sociability",[2]; groups = injury or drug treatment,no overall differences between groups
same,"three-chamber task stage 3, lack of preference for social novelty after TBI",[2]; tested at adulthood,not rescued by p-OH SB-3CT
same,"AUC 0-last, brain",[3]; [7],189 pmol·min/mg
same,"AUC 0-last, plasma",[3]; [7],273 µM·min
same,"AUC 0-∞, brain",[3]; [7],191 pmol·min/mg
same,"AUC 0-∞, plasma",[3]; [7],276 µM·min
same,Brain AUC /Plasma AUC,[3]; [7],0.693
same,Brain concentration,[3]; [8],4.67 ± 1.60 pmol/mg tissue
same,Plasma concentration,[3]; [8],6.49 ± 4.49 µM
same,peak brain level expressed as concentration,"[3]; 30 min after final dose, assuming a density of 1 g/mL",4.67 µM
same,Brain concentration,[3]; [9],0.905 ± 1.09 pmol/mg tissue
same,Plasma concentration,[3]; [9],1.66 ± 1.82 µM
same,Brain concentration,[3]; [10],0.0772 ± 0.0211 pmol/mg tissue
same,Plasma concentration,[3]; [10],0.122 ± 0.0762 µM
same,Brain concentration,"[3]; 4 h after final dose, 25 mg/kg s.c. at 0, 2 and 24 h, p21 mice, 25 mg/kg",0.0209 ± 0.0058 pmol/mg tissue and 0.0209 ± 0.00578 pmol/mg tissue
same,time to peak concentration in brain,"[3]; s.c., after the final dose",30 min
same,time to peak concentration in plasma,"[3]; s.c., after the final dose",30 min
same,functional and neuropathological outcomes after severe TBI in adult mice,TBI in adult mice,treatment-dependent improvement in functional and neuropathological outcomes
same,injury-induced reduction in social investigation (resident-intruder),[4],independent of treatment with p-OH SB-3CT
same,residence time (how long the drug is bound to the target MMPs),MMP-9 or MMP-2,considerably longer than that of SB-3CT
same,animal weight over development,[5],no differences between treatment or injury groups
same,time spent in the open arms of the elevated plus maze,[6],not affected by either TBI or p-OH SB-3CT treatment
